Experimental data as given in ChEMBL document CHEMBL3507680, “University of Dundee, Gates Library screen for HepG2 cell viability”.

Experiment: Human HepG2 cell viability assay in 384 well format
Assay type: toxicity, cell-based
Design: dose 125 nL, time 70.5 hour; cytotoxicity at 70.5 h: concentration not given beside the values
Conditions: HepG2 cells, read-out: Inhibition

Row | SMILES | cytotoxicity at 70.5 h
1 | COc1c(C)cnc(CN2CCCC2Cn2nc(C)nc2C)c1C (configuration not stated) | -3.93%
2 | COc1cc(F)c(S(=O)(=O)Nc2cnc(O)cc2C)cc1OC | -11.9%
3 | Cc1noc(C)c1CCC(=O)NC(C)c1nnc2n1CCC2 (configuration not stated) | 8.52%
4 | COC(=O)CNC(=O)c1nc(Br)sc1C(C)C | 42.9%
5 | CCc1nccn1CCNC1CCN(c2nc3ccc(Cl)cc3s2)CC1 | 40.5%
6 | Cc1cccc(C(=O)NCCCN2CCN(c3ccccc3)CC2)c1 | 7.06%
7 | COc1ccc(C)cc1CC(=O)N1CCN(CC(C)O)CC1 (configuration not stated) | -5.05%
8 | COc1cccc2sc(N3CC(OC(C)=O)C3)nc12 | -11.2%
9 | CN(C)C(=O)N1CC2(CCOCC2)c2cc(NC(=O)CCO)ccc21 | -0.169%
10 | CNC(=O)C1CCCCN1C(=O)c1csc(-c2ccccc2)n1 (configuration not stated) | -9.17%
11 | Cc1nc2cc(=O)[nH]n2c(C)c1CC(=O)NCCCc1ccccc1 | -4.06%
12 | Cc1cnc(NCCc2c[nH]cn2)nc1-c1ccnn1C | -11.6%
13 | O=C1CC[C@H]2[C@H](CCN2c2ncc(F)cn2)N1c1ccccc1 | -5.86%
14 | COCC(c1cccc(C(F)(F)F)c1)N(C)C(=O)c1cccnc1 (configuration not stated) | -1.51%
15 | CCn1cnnc1CNc1nc(C)nc2scc(CC(C)C)c12 | -15.9%
16 | CS(=O)(=O)N1CCN2C(=O)N(C3CCOCC3)C[C@H]2C1 | 12.9%
17 | Cc1nn(C)c2ncc(S(=O)(=O)N3CCN4CCCC4C3)cc12 (configuration not stated) | -7.68%
18 | CCc1ccc(NC(=O)C(C)Nc2cccc3c2OCCO3)cc1 (configuration not stated) | 2%
19 | Cc1nc(C)n(CCNC2CCN(c3ncnc4c(C)csc34)CC2)n1 | -5.4%
20 | CC(C)(C)CNS(=O)(=O)C1CS(=O)(=O)c2ccccc21 (configuration not stated) | 16.6%
21 | OCCN1CCN(CC(O)c2ccc(C(F)(F)F)cc2)CC1 (configuration not stated) | 33.3%
22 | Cc1cnn(CC2CCCCN2C(=O)c2ccc3nncn3c2)c1 (configuration not stated) | -3.43%
23 | CC(=O)N1CCN(Cc2ccc(F)cc2)CC2(CC(=O)N(C)C2)C1 (configuration not stated) | 23.3%
24 | CCC(NC(=O)c1coc(COc2cccc(F)c2F)n1)C(=O)NC (configuration not stated) | -9.68%

Row | SMILES | cytotoxicity at 70.5 h
25 | OC(COCc1ccco1)CN1CCC(Cn2cccn2)CC1 (configuration not stated) | -14.1%
26 | O=C(O)CCNC(=O)Cc1csc(-c2cccc(Cl)c2)n1 | -14%
27 | CCC(C)(C)NC(=O)CN(Cc1cccc(O)c1)C1CCC(O)CC1 (configuration not stated) | -4.94%
28 | CC1(C)CCN1C(=O)c1cc(F)cc2[nH]cnc12 | -9.74%
29 | NCc1cnc(Nc2ccccc2)nc1 | -17.3%
30 | OCC1(CC2CCCCO2)CCN(c2cnc3ccccc3n2)CC1 (configuration not stated) | -12.6%
31 | CCn1cc(NC(=O)NCC(C)N(C)C)cn1 (configuration not stated) | 18.2%
32 | O=C(NCC1CC1)C1CSCN1S(=O)(=O)c1ccccc1 (configuration not stated) | -15.1%
33 | C[C@]1(O)CN(Cc2cscn2)CC[C@@H]1Oc1cccc(F)c1 | -3.07%
34 | Cc1ccc(-c2nnc(CN3CCc4nn(C)c(=O)cc4C3)o2)cc1 | 3.35%
35 | CCN1CCCC(c2c(-c3ccccc3)ncn2CC(N)=O)C1 (configuration not stated) | -0.352%
36 | CC(C)C1SCC(=O)Nc2c1c(O)nn2C1CCCC1 (configuration not stated) | -23.1%
37 | Cc1ncsc1C(=O)Nc1cccc(OCC(F)F)n1 | -8.57%
38 | Cn1ccnc1CN1CCN2C[C@H](Oc3cccc(F)c3)C[C@H]2C1 | 11.9%
39 | Cn1c2ccc(F)cc2c2ncn(CCN3CCOCC3)c(=O)c21 | 17.4%
40 | O=C(CCS(=O)(=O)c1ccccc1)NCCCn1cccn1 | -16.1%
41 | CCc1ncc(C(=O)N(CCOC)Cc2ccccc2F)cn1 | -2.26%
42 | CC(C)c1ccc(C#N)c(N2CC(C)(C)[C@@](C)(O)C2)n1 | -17.8%
43 | CCC1COC2(CCN(C(=O)c3ccco3)CC2)C1 (configuration not stated) | -9.86%
44 | Cc1cc(NC(=O)Cn2ncc(SCC(N)=O)c(Cl)c2=O)ccc1Br | -5.33%
45 | CCOCCNC(=O)c1cc(Br)c2c(c1)OCCO2 | -10.7%
46 | O=C(c1cnccn1)N1CC[C@H]2[C@@H]1CCC(=O)N2c1cccnc1 | -17.4%
47 | CCNS(=O)(=O)c1cccc(CSC)c1 | 5.32%
48 | Cc1nc(CN2CCCCC2Cn2cncn2)nc2ccccc12 (configuration not stated) | 20.9%

Row | SMILES | cytotoxicity at 70.5 h
49 | CCN(CCN1CCCCCC1)C(=O)c1cnc(-c2cccnc2)nc1 | -2.81%
50 | O=C(COC1CCCCC1)N1CCCC(n2ccnc2)C1 (configuration not stated) | -6.58%
51 | COCCN(CCOC)C(=O)c1cn(C(C)(C)C)c2ncccc12 | 3.1%
52 | CC(C)=CCC1(CO)CCCN(S(=O)(=O)N2CCCC2)C1 (configuration not stated) | -14.7%
53 | CN(Cc1cccnc1)C1CC2(CCN(c3ccccn3)CC2)C1 | -8.74%
54 | Cc1ccc2c(C)c(C(=O)NCc3csc(N)n3)oc2c1 | -13%
55 | CCC(=O)N1CCC(c2cc(Nc3ncccn3)nc(C)n2)C1 (configuration not stated) | -10.9%
56 | CC(C)(C)S(=O)(=O)CCNC1CSCCc2ccccc21 (configuration not stated) | 27.7%
57 | O=C(NS(=O)(=O)Cc1ccon1)c1ccsc1 | -3.39%
58 | CSCCCN1CC[C@@H](NC(=O)c2cnccn2)[C@H](O)C1 | -10.8%
59 | OC(CN1CCN(Cc2cccc(F)c2)CC1)C1CC1 (configuration not stated) | -11.3%
60 | Cn1cc2c(n1)C(CNCC1CCOCC1)OCC2 (configuration not stated) | 4.92%
61 | c1coc(CN2C[C@@H]3CN(Cc4ccoc4)CCO[C@@H]3C2)c1 | -1.5%
62 | CCN(C)c1ccc(CNS(=O)(=O)C2CCOCC2)cc1F | -10.6%
63 | CCN1CC[C@]2(CN(Cc3nccs3)C[C@H]2c2ccccc2)C1=O | -0.124%
64 | COCCC(=O)N1CCC(c2cc3ncc(C)nc3[nH]2)CC1 | -14.7%
65 | O=C(CCCc1ccccc1)N1CCCC(n2cncn2)C1 (configuration not stated) | -4.48%
66 | CCn1cnnc1C1CCN(C(=O)c2cccc(C)c2C)CC1 | 30.1%
67 | Cc1n[nH]c(C)c1CC(=O)N1CCC2(CC1)CN(C)CCN2C | 23.4%
68 | OC1(CNc2ccccc2)CCNCC1 | -7.62%
69 | N#Cc1ncn(CCC(=O)Nc2cccc(Cl)c2)n1 | -8.53%
70 | COCCN1CCn2c(CN(C)C(C)C)cnc2C1 | -7.59%
71 | Cc1ccc(CN2CCn3c(CN4CCN(C)CC4)cnc3C2C)s1 (configuration not stated) | 21.3%
72 | O=C(CCn1cncn1)NC1CCc2nccn2C1 (configuration not stated) | -0.747%

Row | SMILES | cytotoxicity at 70.5 h
73 | CN1C[C@H](O)[C@]2(CCN(Cc3ccc(F)c(F)c3)C2)S1(=O)=O | 13.9%
74 | Cc1noc(CN2CC=C(c3cnn(C4CCS(=O)(=O)C4)c3)CC2)n1 (configuration not stated) | 27.9%
75 | CC(C#N)CNS(=O)(=O)c1ccc(Br)c(F)c1 (configuration not stated) | -8.29%
76 | COC(=O)c1cccc(-c2nc(CC3CCN(C)CC3)no2)c1 | -3.78%
77 | O=C(c1ccccc1C1CCNC1)N1CCC(N2CCC(O)CC2)CC1 (configuration not stated) | -12.4%
78 | CCC(=O)c1ccc(OCC(=O)N2CCNCC2C(=O)NC2CC2)cc1 (configuration not stated) | -9.05%
79 | O=c1[nH]c(NCc2cccc(-c3ccccc3)c2)nc2c1CCNC2 | -21%
80 | Cc1nn(C)c2c(N3CCN(C(=O)C4CC4)CC3)ncnc12 | 16.2%
81 | CC1c2ncc(Cn3cncn3)n2CCN1C(=O)c1ccccn1 (configuration not stated) | 31.8%
82 | Cc1nc(NCc2ccco2)nc2c1COCC21CCNC1 (configuration not stated) | -8.24%
83 | O=C(CC1CCCCC1)N1CCN(C(=O)NCc2ccccn2)CC1 | -9.56%
84 | CSc1c(CC(=O)O)n(C)c2ccccc12 | -0.594%
85 | CC(=O)N1CCCC2(CCC(=O)N2Cc2cccnc2)C1 (configuration not stated) | 30.1%
86 | O=C(c1cc2ccccc2o1)N1CCN(Cn2cc(Cl)cn2)CC1 | -5.33%
87 | O=C(c1cc(-n2cccn2)ccn1)N1CCOc2ccc(F)cc21 | 0.748%
88 | COc1ccc(CC(=O)N2CC[C@@H]3[C@H](CC2)N(C)CCS3(=O)=O)cc1 | -8.6%
89 | Cc1cc(-c2nccn2CCN2CCCCC2CO)oc1C (configuration not stated) | -5.85%
90 | COCc1csc(NC(=O)NCc2ccccn2)n1 | 5.11%
91 | CN1CCC(Oc2ccc(NC(=O)c3ccccc3)cc2)CC1 | -9.56%
92 | Cn1cc(N2C[C@@H]3CN(Cc4ccccn4)C[C@@H]3C2=O)cn1 | 24.4%
93 | CCC[C@H]1CN(Cc2ccc(N(C)C)nc2)C[C@@H]1NS(=O)(=O)CC | -1.04%
94 | O=C(CSCc1ccncc1)NCC1CCN(C2CC2)C1 (configuration not stated) | 1.83%
95 | c1c(CN2CCCC2)nc2n1CCN(CC1CC1)C2 | -4.19%
96 | CC(C)c1nn(C)c(N2CCOCC2)c1CNC(C)c1ccccn1 (configuration not stated) | -2.55%

Row | SMILES | cytotoxicity at 70.5 h
97 | Cc1nc(C)c(CC(=O)NCc2ccccc2F)s1 | -11.1%
98 | CC(C)c1noc(CN2CCC3(CCCO3)CCC2=O)n1 (configuration not stated) | -0.624%
99 | Cc1nc2c(c(NCC(c3ccccc3C)N(C)C)n1)CCNC2 (configuration not stated) | 25.9%
100 | Cc1noc(CN(C)Cc2ccc3c(c2)OCO3)n1 | 12.4%
101 | O=C(c1ccsc1)N1CCC2(CCN2Cc2ccc(F)cc2)C1 (configuration not stated) | -8.12%
102 | O=c1[nH]c2ccccc2c2c1CCO2 | -2.59%
103 | Cc1nc(C)n(CC2CCCN(CCCOc3ccccc3)C2)n1 (configuration not stated) | -0.0538%
104 | Cc1cccc(CN2CCC3(CC2)CN(c2cccnc2)C(=O)CO3)n1 | -4.77%
105 | Cn1nccc1CNC(=O)C1CCCCC1 | -2.81%
106 | O=C(CCS(=O)(=O)C1CCCC1)N1CCCC1c1ccsc1 (configuration not stated) | -4.99%
107 | CCCc1n[nH]c(C2CN(CCC(F)(F)F)CCO2)n1 (configuration not stated) | -5.18%
108 | Cc1nc(C2CCCN2C(=O)c2cnns2)no1 (configuration not stated) | -8.38%
109 | CCCn1cnnc1CNC(=O)CC1C(=O)NCCN1C(C)C (configuration not stated) | 10.7%
110 | Cc1cc(C(=O)N2CCC3(CCCN(CC4CC4)C3=O)C2)c(C)n1C (configuration not stated) | -2.9%
111 | COc1ccc(NC(=O)CCC2CCCN(S(=O)(=O)C3CC3)C2)cc1Cl (configuration not stated) | 5.12%
112 | CN(Cc1ccccc1)CC(O)Cn1cnc2ccccc2c1=O (configuration not stated) | 6.62%
113 | N#Cc1ccccc1OCCN1CCCC1Cn1cccn1 (configuration not stated) | -4.78%
114 | CC(=O)NC1CCCN(Cc2ccc(OCc3ccccn3)cc2)C1 (configuration not stated) | -6.3%
115 | COc1nc2c(cc1C(=O)NC(C)Cc1cc(C)n[nH]1)CCC2 (configuration not stated) | -12%
116 | Cc1ncsc1CCN(C)Cc1cc2n(n1)CCN(S(C)(=O)=O)C2 | -6.95%
117 | Cn1ccc(C(=O)NCc2cccc(NC(=O)C3CCC3)c2)cc1=O | -13.3%
